Measured values published in patent US11279733B2, “Peptide antibiotics” (priority 2017, dated 2022).
Values after ≈ are worked out from the molar mass of the structure shown. Like-named read-outs stand apart in the source and are kept apart here. Positions of bridges follow the written chain, without caps; N, C: chain ends. Non-standard residues stand in square brackets, D forms with d. Residues, ends and D or L forms follow the SMILES beside them. *: point of attachment. Cholyl = C[C@H](CCC(=O)*)[C@H]1CC[C@H]2[C@@H]3[C@H](O)C[C@@H]4C[C@H](O)CC[C@]4(C)[C@H]3C[C@H](O)[C@]12C; Decanoyl(3R-OH) = CCCCCCC[C@@H](O)CC(=O)*; dDab = NCC[C@@H](N)C(=O)O; Dab = NCC[C@H](N)C(=O)O; Dap = NC[C@H](N)C(=O)O

What was measured:
[1] = system: K. pneumoniae GN_106, PmxR; settings: GN 106, PmxR
Outline: (§1)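 Mid-log cultures grown in Mueller Hinton broth at 37° C were tested by 2-fold broth microdilution at 5×10^5 CFU/mL final. Compounds were dissolved in water and tested over a final range of 32 to 0.015 μg/mL.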

[2] = system: K. pneumoniae GN_102 PmxR; settings: GN 102 PmxR
Outline: as §1

P. aeruginosa ATCC 27853 = settings: ATCC 27853
Outline: as §1

[3] = system: K. pneumoniae ATCC BAA-2146, NDM-1 pos; settings: ATCC BAA-2146
Outline: as §1

K. pneumoniae ATCC 13883 = settings: ATCC 13883
Outline: as §1

E. coli ATCC 25922 = settings: ATCC 25922
Outline: as §1

[4] = system: P. aeruginosa GN_105, PmxR; settings: GN 105, PmxR
Outline: as §1

[5] = system: S. aureus ATCC 25923, MSSA; settings: ATCC 25923
Outline: as §1

A. baumannii GN_093 PmxR = settings: GN 093 PmxR
Outline: as §1

[6] = system: P. aeruginosa GN_043, PmxR
Outline: as §1

[7] = system: K. pneumoniae ATCC 700603, MDR; settings: ATCC 700603
Outline: as §1

A. baumannii ATCC 19606 = settings: ATCC 19606
Outline: as §1

in vitro [8] = settings: human
Description: Cytotoxicity of the synthesised peptides was evaluated by comparison with commercially available colistin (polymyxin E), polymyxin B (Sigma chemical Co., St. Louis, Mo., U.S.A.) and synthetic octapeptin C4 by conducting lactate dehydrogenase (LDH) assay. CC50 values calculated based on curve fitting of dose dependent inhibition of cell growth represented the cytotoxicity of the peptide. Human kidney 2 (HK2) cells were seeded as 2000 cells per well in a 384 well cell culture plate in a final volume of 20 μL in DMEM/F12 medium (Invitrogen #11330057), in which 10% of FBS was added. Cells were incubated for 24 hours at 37° C., 5% CO2 to allow cells to attach to the plates. Similar conditions were employed for HEK293 and HepG2 cytotoxicity assays.
Cytotoxicity to HEK293 and HepG2 cells was determined using the resazurin assay (McMillian, M. K.; Li, L.; Parker, J. B.; Patel, L.; Zhong, Z.; Gunnett, J. W.; Powers, W. J.; Johnson, M. D. An improved resazurin-based cytotoxicity assay for hepatic cells; Cell Biol. Toxicol. 2002, 18, 157-173; O'Brien, J.; Wilson, I.; Orton, T.; Pognan, F. Investigation of the Alamar Blue (resazurin) fluorescent dye for the assessment of mammalian cell cytotoxicity. Eur. J. Biochem. 2000, 267, 5421-5426). In brief, HEK293 and HepG2 cells were seeded at 4000 cells/well in black-wall, clear-bottom 384-well plates (Corning, Australia) and incubated for 24 h at 37° C., 5% CO2. Compounds were then added into each well. After 24 h incubation, 5 μM resazurin was added per well and incubated at 37° C. for 2 h. Fluorescence intensity was then read using a Polarstar Omega with excitation/emission 560/590. The data was then analyzed using GraphPad Prism 6 software. CC50 values were determined using GraphPad Prism 6 software (Inc. La Jolla, Calif.).

in vitro [9] = settings: human; remark: listed apart in the source
Outline: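 4000 cells/well, 24 h attach (37 °C, 5% CO2); compound 24 h; 5 μM resazurin 2 h, 37 °C; fluorescence ex/em 560/590. CC50 by curve fit.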

in vitro [10] = settings: human; remark: listed apart in the source
Outline: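 HK2 cells were seeded at 2000 per well in DMEM/F12 with 10% FBS and left to attach for 24 h at 37 °C, 5% CO2. They were then exposed for 24 h to 3-fold peptide dilutions starting from 600 μM solutions in quadruplicate. LDH release was read at 450 nm, and CC50 was fitted from dose-response curves.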

Structure (SMILES) | MIC K. pneumoniae GN_106, PmxR [1] [mg/L] | MIC K. pneumoniae GN_102 PmxR [2] [mg/L] | MIC P. aeruginosa ATCC 27853 (P. aeruginosa ATCC 27853) [mg/L] | MIC K. pneumoniae ATCC BAA-2146, NDM-1 pos [3] [mg/L] | MIC K. pneumoniae ATCC 13883 (K. pneumoniae ATCC 13883) [mg/L] | MIC E. coli ATCC 25922 (E. coli ATCC 25922) [mg/L] | MIC P. aeruginosa GN_105, PmxR [4] [mg/L] | MIC S. aureus ATCC 25923, MSSA [5] [mg/L] | MIC A. baumannii GN_093 PmxR (A. baumannii GN_093 PmxR) [mg/L] | MIC P. aeruginosa GN_043, PmxR ([6]; P. aeruginosa GN_043, PmxR) [mg/L] | MIC K. pneumoniae ATCC 700603, MDR [7] [mg/L] | MIC A. baumannii ATCC 19606 (A. baumannii ATCC 19606) [mg/L] | CC50 at 24 h (in vitro [8]) [µM] | CC50 at 24 h (in vitro [9]) [µM] | CC50 at 24 h (in vitro [10]) [µM] | MIC P. aeruginosa GN_043, PmxR [6] [mg/L]
CCCCCCC[C@@H](O)CC(=O)N[C@H](CCN)C(=O)N[C@H]1CNC(=O)[C@H](CC(C)C)NC(=O)[C@H](CCN)NC(=O)[C@H](CCN)NC(=O)[C@H](CC(C)C)NC(=O)[C@@H](CC(C)C)NC(=O)[C@H](CCN)NC1=O [compound 633, 3(R)OH-nC9CO-D-Dab-cyc[L-Dap-L-Dab-D-Leu-L-Leu-L-Dab-L-Dab-L-Leu]] ({Decanoyl(3R-OH)}-[dDab][Dap][Dab][dL]L[Dab][Dab]L; lactam 2-C) | >32 | >32 | 1 (≈ 1 µM) | 8 (≈ 8.03 µM) | >32 | 16 (≈ 16.1 µM) | >32 | >32 | >32 | 16 (≈ 16.1 µM) | 32 (≈ 32.1 µM) | >32 | > 300 | > 300 | 104 | 
CCCCCCC[C@@H](O)CC(=O)N[C@H](CCN)C(=O)N[C@H]1CCNC(=O)[C@H](CC(C)C)NC(=O)[C@H](CCN)NC(=O)[C@H](CCN)NC(=O)[C@H](CC(C)C)NC(=O)[C@@H](Cc2ccc(O)cc2)NC(=O)[C@H](CCN)NC1=O [compound 5008, 3(R)OH-nC9CO-D-Dab-cyc[L-Dab-L-Dab-D-Tyr-L-Leu-L-Dab-L-Dab-L-Leu]] ({Decanoyl(3R-OH)}-[dDab][Dab][Dab][dY]L[Dab][Dab]L; lactam 2-C) | 16 (≈ 15.1 µM) | 16 (≈ 15.1 µM) | 1 (≈ 0.943 µM) | 16 (≈ 15.1 µM) | 16 (≈ 15.1 µM) | 8 (≈ 7.54 µM) | 16 (≈ 15.1 µM) | 32 (≈ 30.2 µM) | 32 (≈ 30.2 µM) | 2 (≈ 1.89 µM) | 8 (≈ 7.54 µM) | 32 (≈ 30.2 µM) | > 300 | > 300 | 106 | 
CC(C)C[C@@H]1NC(=O)[C@H](CCN)NC(=O)[C@H](CCN)NC(=O)[C@H](CC(C)C)NC(=O)[C@@H](Cc2ccccc2)NC(=O)[C@H](CCN)NC(=O)[C@@H](NC(=O)[C@@H](CCN)NC(=O)CC[C@@H](C)[C@H]2CC[C@H]3[C@@H]4[C@H](O)C[C@@H]5C[C@H](O)CC[C@]5(C)[C@H]4C[C@H](O)[C@]23C)CCNC1=O [compound 5016, cholic acid-D-Dab-cyc[L-Dab-L-Dab-D-Phe-L-Leu-L-Dab-L-Dab-L-Leu]] (Cholyl-[dDab][Dab][Dab][dF]L[Dab][Dab]L; lactam 2-C) | 16 (≈ 12.7 µM) | 8 (≈ 6.33 µM) | 4 (≈ 3.16 µM) | 8 (≈ 6.33 µM) | 4 (≈ 3.16 µM) | 8 (≈ 6.33 µM) | 4 (≈ 3.16 µM) | 32 (≈ 25.3 µM) | 8 (≈ 6.33 µM) |  | 4 (≈ 3.16 µM) | 16 (≈ 12.7 µM) | 46 | 48 | 17 | 4 (≈ 3.16 µM)
